Laboratory results published in patent US20100330172A1, “CONTROLLED-RELEASE PHARMACEUTICAL FORMULATION” (ALPHAPHARM PTY LTD, priority 2007, published 2010).

Experiments:
[1] = Desvenlafaxine particle size (MMD); format: physicochemical; conditions: particle size of desvenlafaxine salt grade
Source text: The “mass mean diameter” or “MMD” refers to the median particle diameter based on mass (i.e. the particle diameter where one half of the mass of particles is contributed by particles with a lesser diameter and one half of the mass of particles is contributed by particles with a greater diameter) and can be measured using various commonly available methods such as measurement using light (eg. light-scattering methods or turbidimetric methods), sedimentation methods (eg. pipette analysis using an Andreassen pipette, sedimentation scales, photo-sedimentometers or sedimentation in a centrifugal force), pulse methods (eg. Coulter counter), or sorting by means of gravitational or centrifugal force.
The particle size of desvenlafaxine utilised in the following formulations are set out in Table 1.

[2] = in vitro dissolution, USP II apparatus (paddles), 50 rpm, pH 6.8 phosphate buffer; format: physicochemical; conditions: FIG. 1; similar time points; matrix tablets with Eudragit NE40D
Description: FIG. 1 is the in vitro dissolution profiles of embodied formulations of the present invention when measured using a USP II apparatus at 50 rpm in pH 6.8 phosphate buffer.
The resulting in vitro dissolution profiles of these batches as tested using a USP II apparatus (paddles) at 50 rpm in pH 6.8 phosphate buffer are set out in Table 3.

[3] = cited from earlier work
[4] = test system: norepinephrine uptake; conditions: in vitro studies; cited from earlier work
[5] = test system: dopamine uptake; conditions: in vitro studies; cited from earlier work

| SMILES | MMD (mass mean diameter) [1] [μm] | change in amount of desvenlafaxine dissolved, coarse to fine [2] | other results |
| --- | --- | --- | --- |
| CN(C)CC(c1ccc(O)cc1)C1(O)CCCCC1.O=C(O)CCC(=O)O (stereo not shown) [Coarse succinate] | 186 |  |  |
| CN(C)CC(c1ccc(O)cc1)C1(O)CCCCC1.O=C(O)/C=C/C(=O)O (stereo not shown) [Coarse fumarate] | 184 |  |  |
| CN(C)CC(c1ccc(O)cc1)C1(O)CCCCC1.O=C(O)/C=C/C(=O)O (stereo not shown) [Fine fumarate] | 21 | approximately similar increase in the amount of desvenlafaxine dissolved |  |
| CN(C)CC(c1ccc(O)cc1)C1(O)CCCCC1.O=C(O)CCC(=O)O (stereo not shown) [Fine succinate] | 37 | marked increase in the amount of desvenlafaxine dissolved |  |
| CN(C)CC(c1ccc(O)cc1)C1(O)CCCCC1 (racemic) [desvenlafaxine, (+/−)-4-[2-(dimethylamino)-1-(1-hydroxycyclohexyl)ethyl]phenol] |  |  | half-life ([3]; in vivo): about 10 hours; half-life relative to venlafaxine ([3]; times longer than the half-life of venlafaxine): approximately 2.5 times; inhibition of norepinephrine uptake compared with racemic venlafaxine [4]: more potent inhibitor; inhibition of dopamine uptake compared with racemic venlafaxine [5]: more potent inhibitor |
